Test results: paper PMC3485206, “Integrative Binding Sites within Intracellular Termini of TRPV1 Receptor” (PLoS ONE, 2012)
Substitutions are numbered along the chain they refer to. Names and notes keep the numbering of the source. “Also recorded” adds a separate entry of the source.

B1: K770A/R778A/R785A: triple alanine mutant of TRPV1-CT (712–838) thioredoxin fusion protein (protein, UniProt O35433 712-838, looked up, variant K770A R778A R785A)
chain: FLKCMRKAFRSGKLLQVGFTPDGKDDYRWCFRVDEVNWTTWNTNVGIINEDPGNCEGVARTLSFSLASGRVSGANWKNFALVPLLRDASTRDRHATQQEEVQLKHYTGSLKPEDAEVFKDSMVPGEK
modifications: thioredoxin fusion, His tag
notes: triple alanine mutant of TRPV1-CT (712–838) thioredoxin fusion protein
B2: K770A/R781A/R785A: triple alanine mutant of TRPV1-CT (712–838) thioredoxin fusion protein (protein, UniProt O35433 712-838, looked up, variant K770A R781A R785A)
chain: B1 chain with A67R, R70A
modifications: thioredoxin fusion, His tag
notes: as for B1

Assays:
[1] = Surface plasmon resonance, binding to PC/PIP2 liposomes on sensor chip; settings: for Kd: SPR equilibrium binding, PC/PIP2 (20∶1) liposomes, 25°C, HBSS, read-out: equilibrium dissociation constant KD; for binding to PIP2 containing liposomes (in words): SPR, PC/PIP2 liposomes
Experimental: All SPR measurements were performed at 25°C using a liposome-coated NLC chip in aProteOn XPR36 Protein Interaction Array System (Bio-rad, Hercules, CA, USA). […] Lipid solution (10 mg/ml) in HBSS was mixed with 8 µM oligonucleotide 5′-[…]-3′, modified at the 3′ end with cholesterol (Generi-Biotech, Hradec Kralove, Czech Republic), and the mixture was extruded using a LiposoFast Basic apparatus (Avestin Europe, Mannheim, Germany) with a polycarbonate membrane with a 100-nm pore diameter (Avestin Europe, Mannheim, Germany). The lipid/DNA ratio was 1200∶1. The vesicles were then incubated with 8 µM anti-sense oligonucleotide 5′-[…]-3′, modified at the 5′ end with biotin (Generi-Biotech, Hradec Kralove, Czech Republic), and washed by centrifugation (50,000 g) for 30 min at 4°C. The vesicles were diluted to a final concentration of 1 mg/ml in HBSS and immobilized on the streptavidin-coated NLC chip (Bio-rad, Hercules, CA, USA) surface at a flow rate of 25 µl/min for 10 min to give ∼800 −1500 resonance units (RU). All SPR measurements were carried out in HBSS at a flow rate of 30 µl/min for both the association and dissociation phase of the sensograms. For determining equilibrium binding, the association phases of five different concentrations of each protein were brought to near-equilibrium values (Req). Surfaces were typically regenerated with 50 µl of 1 M NaCl and 20 mM glycin buffer, pH 3.5. The sensograms were corrected for sensor background by interspot referencing (the sites within the 6×6 array which are not exposed to ligand immobilization but are exposed to analyte flow), and double referenced by subtraction of the analyte using a “blank” injection. Assuming a Langmuir-type binding between the protein (P) and protein binding sites (S) on vesicles (i.e. P + S ↔ PS), Req values were then plotted versus protein concentration (P0), and the KD value was determined by nonlinear least-squares analysis of the binding isotherm using the equation Req = Rmax/(1+KD/P0).

CaM = tested on: CaM; set-up: method as in PMID 18755153; settings: TRPV1-CT fusion protein mutants; cited from earlier work
[2] = ELISA, influence of liposome composition on binding to immobilized TRPV1-CT; settings: liposomes of different composition
Experimental: The lipids L-α-phosphatidylinositol-4,5-bisphosphate (PIP2), 1,2-dimyristoyl-sn-glycero-3- Phosphatidylserine (PS), 1,2-dimyristoyl-sn-glycero-3-phosphocholine (PC) and 1,2-dimyristoyl-sn-glycero-3- Phosphatidylethanolamine (PE) were obtained from Avanti Polar Lipis, Inc. A stock solution of each lipid was prepared in chloroform, except for PIP2 stock solution, which was prepared in a chloroform:methanol (2∶1) mixture. Liposomes of the following compositions were prepared: PC, PC/PIP2 97/3%, PC/PIP2 90/10%, PC/PIP2/PS 70/10/20%, PC/PIP2/PS/PE 40/10/20/30%, PC/PIP2/PE 70/10/20%, PC/PIP2/PE 77/3/20%, PC/PE/PS 50/30/20% by mixing appropriate volumes of the stock solutions. After being dried under an N2 stream, lipid films were hydrated with 1× HBSS buffer containing 8 µM oligonucleotide 5′-[…]-3′, modified at the 3′ end with cholesterol (Generi-Biotech, Hradec Kralove, Czech Republic)- followed by extrusion 20 times through a polycarbonate membrane with a 100-nm pore diameter (Avestin Europe, Mannheim, Germany). Finally 8 µM complementary oligonucleotide Biotin conjugate 5′-[…]-3′ (Generi-Biotech, Hradec Kralove, Czech Republic) was added to the liposome mixture. A 20-min incubation was followed by centrifugation and washing steps to remove the unbound oligonucleotide-Biotin conjugate.
96-well micro titer plates were used. […] Absorbance was read at 490 nm using a micro plate reader.

[3] = Control steady-state fluorescence anisotropy with NBD-PC; assay type: binding; settings: NBD-PC 10 nM
Experimental: Peptides were dissolved in 50 mM Tris-HCl (pH 7.5), 100 mM NaCl buffer and were used for measurements of fluorescence anisotropy. Steady-state fluorescence anisotropy measurements were performed in an ISS Photon Counting Steady-State Spectrofluorimeter (ISS PC1TM) at room temperature with a PIP2-Bodipy® FL C5, C6-PtdIns(4,5)P2 molecular probe (Invitrogen, cat. n. B22627, Figure S3A), hereafter denoted as PIP2-Bodipy and the control experiment was done with 16∶0-06∶0 NBD PC 1-palmitoyl-2-{6-[(7-nitro-2-1,3-benzoxadiazol-4-yl)amino]hexanoyl}-sn-glycero-3-phosphocholine in chloroform (NBD-PC), (Avanti Polar Lipids, Inc. Cat. n. 810130C, Figure S3B) The PIP2-Bodipy probe was diluted in deionized H2O. The final concentration of the fluorescently labeled probe in the measuring buffer in the cuvette was 10 nM and increasing amounts of peptides and fusion protein TRPV1 respectively were titrated into the cuvette. […] At each peptide concentration, steady-state fluorescence anisotropy was recorded. The fraction of TRPV1s regions or their mutants bound to fluorescent probe was determined from the anisotropy changes using Eq. (1), where FB is the fraction bound, rmin and rmax are the anisotropies of the free and bound PIP2-Bodipy with TRPV1-CT, pTRPV1 regions or its mutants, robs is the observed anisotropy, and Q is the ratio of the intensities of the free and bound protein (fmax/fmin). […]

[4] = Steady state fluorescence anisotropy binding assay with PIP2-Bodipy; settings: for Kd: PIP2-Bodipy 10 nM titrated with protein or peptide, room temperature, read-out: equilibrium dissociation constant KD
Experimental: Peptides were dissolved in 50 mM Tris-HCl (pH 7.5), 100 mM NaCl buffer and were used for measurements of fluorescence anisotropy. Steady-state fluorescence anisotropy measurements were performed in an ISS Photon Counting Steady-State Spectrofluorimeter (ISS PC1TM) at room temperature with a PIP2-Bodipy® FL C5, C6-PtdIns(4,5)P2 molecular probe (Invitrogen, cat. n. B22627, Figure S3A), hereafter denoted as PIP2-Bodipy and the control experiment was done with 16∶0-06∶0 NBD PC 1-palmitoyl-2-{6-[(7-nitro-2-1,3-benzoxadiazol-4-yl)amino]hexanoyl}-sn-glycero-3-phosphocholine in chloroform (NBD-PC), (Avanti Polar Lipids, Inc. Cat. n. 810130C, Figure S3B) The PIP2-Bodipy probe was diluted in deionized H2O. The final concentration of the fluorescently labeled probe in the measuring buffer in the cuvette was 10 nM and increasing amounts of peptides and fusion protein TRPV1 respectively were titrated into the cuvette. PIP2-Bodipy excitation and emission wavelengths were set to 500 nm and 512 nm and for NBD – PC 460 nm and 534 nm respectively. At each peptide concentration, steady-state fluorescence anisotropy was recorded. The fraction of TRPV1s regions or their mutants bound to fluorescent probe was determined from the anisotropy changes using Eq. (1), where FB is the fraction bound, rmin and rmax are the anisotropies of the free and bound PIP2-Bodipy with TRPV1-CT, pTRPV1 regions or its mutants, robs is the observed anisotropy, and Q is the ratio of the intensities of the free and bound protein (fmax/fmin). All experiments were carried out in at least triplicate. [drawing 1] (1)
The FB was plotted against the TRPV1 peptides and fusion proteins concentration respectively and fitted using Eq. (2) to determine the equilibrium dissociation constant (KD). Non-linear data fitting was performed using the package SigmaPlot 2000 (6.1) SPSS Inc. P1 is the concentration of PIP2-Bodipy and P2 is the concentration of TRPV1 fusion protein or TRPPV1 synthetic peptides. [drawing 2] (2)

[5] = Control SPR with liposomes containing only phosphatidylcholine; assay type: binding; settings: liposomes not containing PIP2
Experimental: All SPR measurements were performed at 25°C using a liposome-coated NLC chip in aProteOn XPR36 Protein Interaction Array System (Bio-rad, Hercules, CA, USA). Liposomes (100 nm in diameter) were made from 1,2-dimyristoyl-sn-glycero-3-phosphocholine (PC) and L-α-phosphatidylinositol-4,5-bisphosphate (PIP2) (Avanti Lipids, Alabaster, AL, USA) at a molar ratio of 20∶1 (PC/PIP2). Lipid solution (10 mg/ml) in HBSS was mixed with 8 µM oligonucleotide 5′-[…]-3′, modified at the 3′ end with cholesterol (Generi-Biotech, Hradec Kralove, Czech Republic), and the mixture was extruded using a LiposoFast Basic apparatus (Avestin Europe, Mannheim, Germany) with a polycarbonate membrane with a 100-nm pore diameter (Avestin Europe, Mannheim, Germany). The lipid/DNA ratio was 1200∶1. The vesicles were then incubated with 8 µM anti-sense oligonucleotide 5′-[…]-3′, modified at the 5′ end with biotin (Generi-Biotech, Hradec Kralove, Czech Republic), and washed by centrifugation (50,000 g) for 30 min at 4°C. […] Assuming a Langmuir-type binding between the protein (P) and protein binding sites (S) on vesicles (i.e. P + S ↔ PS), Req values were then plotted versus protein concentration (P0), and the KD value was determined by nonlinear least-squares analysis of the binding isotherm using the equation Req = Rmax/(1+KD/P0).

Molecule	Kd [1]	binding to PIP2 containing liposomes (in words) [1]	further results
K770A/R785A: double alanine mutant of TRPV1-CT (712–838) thioredoxin fusion protein	5.8 ± 0.8 µM	suppressed this interaction partially	–
R771A/R778A: double alanine mutant of TRPV1-CT (712–838) thioredoxin fusion protein	> 150 µM	total loss of binding affinity; also recorded: avoided PIP2 binding totally	–
R771A/R781A: double alanine mutant of TRPV1-CT (712–838) thioredoxin fusion protein	33.5 ± 11.7 µM	suppressed this interaction partially	–
R771A: single alanine mutant of TRPV1-CT (712–838) thioredoxin fusion protein	–	preserves its binding ability to PIP2	CaM binding (in words) (CaM): significantly inhibits the CaM binding
R778A: single alanine mutant of TRPV1-CT (712–838) thioredoxin fusion protein	> 150 µM	total loss of binding affinity; also recorded: inhibited the PIP2 binding	CaM binding (in words) (CaM): did not prevent CaM binding
R781A: single alanine mutant of TRPV1-CT (712–838) thioredoxin fusion protein	9.1 ± 3.8 µM	–	–
TRPV1-CT: rat TRPV1 C-tail amino acids 712–838 expressed in E. coli as fusion protein with thioredoxin and 6× His tags	3 ± 0.4 µM	–	selectivity for PIP2 over other lipids (in words) [2]: modest selectivity for PIP2 over other used lipids; interaction with NBD PC (in words) [3]: no interaction; Kd ([4]; listed as WT TRPV1-CT): 3.5 ± 0.9 µM; Kd [4]: 3.48 µM; interaction with liposomes containing only PC (in words) [5]: just a weak interaction was detected; SPR binding response ([1]; protein washed over PC/PIP2 liposome chip after regeneration step): approx. 1000 RU
thioredoxin: fusion tag protein titrated alone as control [reference compound]	–	–	binding to PIP2-Bodipy (in words) ([4]; PIP2-Bodipy 10 nM): no thioredoxin–PIP2 binding
B1	> 150 µM	total loss of binding affinity; also recorded: avoided PIP2 binding totally	–
B2	3.6 ± 0.5 µM	–	–
